In US8530493B2, “Indolopyridines as Eg5 kinesin modulators” (4SC AG, priority 2006, dated 2013):

Tested on: RKO p21 uninduced (proliferating) colon adenocarcinoma cells
Experiment: Alamar Blue cell viability assay, RKO p21 uninduced (proliferating)
Assay type: cell-based
Conditions: Homo sapiens, Table B3, anti-proliferative/cytotoxic activity, 72 hours, read-out: −log EC50 RKO p21 uninduced (proliferating) (converted)
Outline: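 Viability read by Alamar Blue fluorescence (ex 544, em 590 nm), normalised to untreated wells, after 72 h, 37° C, 5% CO2 compound exposure in triplicate. Cells were uninduced (no Ponasterone A), proliferating RKO colon carcinoma p27 or p21 subclones in DMEM with 10% FCS; values are −log EC50 (mol/l).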

Compound	EC50
C[C@@]12Cc3c([nH]c4ccc(Cl)cc34)[C@@H](c3cccc(O)c3)N1C(=O)N(CCCN1CCCCC1)C2=O (racemic) [Example 181, (3aSR,10RS)-6-Chloro-10-(3-hydroxy-phenyl)-3a-methyl-2-(3-piperidin-1-yl-propyl)-3a,4,9,10-tetrahydro-2,9,10a-triaza-cyclopenta[b]fluorene-1,3-dione]	≤ 39.8 nM
COCCNCCCN1C(=O)N2[C@H](c3cccc(O)c3)c3[nH]c4cc(F)c(Cl)cc4c3C[C@@]2(C)C1=O (racemic) [Example 462, (3aSR,10RS)-6-Chloro-7-fluoro-10-(3-hydroxy-phenyl)-2-[3-(2-methoxy-ethylamino)-propyl]-3a-methyl-3a,4,9,10-tetrahydro-2,9,10a-triaza-cyclopenta[b]fluorene-1,3-dione]	≤ 39.8 nM
CNCCCN1C(=O)N2[C@H](c3cccc(O)c3)c3[nH]c4ccc(Br)cc4c3C[C@@]2(C)C1=O (racemic) [Example 211, (3aSR,10RS)-6-Bromo-10-(3-hydroyx-phenyl)-3a-methyl-2-(3-methylamino-propyl)-3a,4,9,10-tetrahydro-2,9,10a-triaza-cyclopenta[b]fluorene-1,3-dione]	≤ 39.8 nM
C[C@@]12Cc3c([nH]c4ccc(OC(F)F)cc34)[C@@H](c3cccc(O)c3)N1C(=O)N(CCN1CCOCC1)C2=O (racemic) [Example 292, (3aSR,10RS)-6-(1,1-Difluoro-methoxy)-10-(3-hydroxy-phenyl)-3a-methyl-2-(2-morpholin-4-yl-ethyl)-3a,4,9,10-tetrahydro-2,9,10a-triaza-cyclopenta[b]fluorene-1,3-dione]	39.8 to 251 nM
COc1cc2c3c([nH]c2cc1F)[C@@H](c1cccc(O)c1)N1C(=O)N(CCCNCC2CC2)C(=O)[C@]1(C)C3 (racemic) [Example 304, (3aSR,10RS)-2-[3-(Cyclopropylmethyl-amino)-propyl]-7-fluoro-10-(3-hydroyx-phenyl)-6-methoxy-3a-methyl-3a,4,9,10-tetrahydro-2,9,10a-triaza-cyclopenta[b]fluorene-1,3-dione]	39.8 to 251 nM
COCCNCCCN1C(=O)N2[C@H](c3cccc(O)c3)c3[nH]c4ccc(Br)cc4c3C[C@@]2(C)C1=O (racemic) [Example 214, (3aSR,10RS)-6-Bromo-10-(3-hydroxy-phenyl)-2-[3-(2-methoxy-ethylamino)-propyl]-3a-methyl-3a,4,9,10-tetrahydro-2,9,10a-triaza-cyclopenta[b]fluorene-1,3-dione]	≤ 39.8 nM
COc1cc2c3c([nH]c2cc1F)[C@@H](c1cccc(O)c1)N1C(=O)N(CCN(C)C)C(=O)[C@]1(C)C3 (racemic) [Example 255, (3aSR,10RS)-2-(2-Dimethylamino-ethyl)-7-fluoro-10-(3-hydroxy-phenyl)-6-methoxy-3a-methyl-3a,4,9,10-tetrahydro-2,9,10a-triaza-cyclopenta[b]fluorene-1,3-dione]	39.8 to 251 nM
C[C@@]12Cc3c([nH]c4ccc(Cl)cc34)[C@@H](c3cccc(O)c3)N1C(=O)N(CCCN1CCCCCC1)C2=O (racemic) [Example 180, (3aSR,10RS)-2-(3-Azepan-1-yl-propyl)-6-chloro-10-(3-hydroxy-phenyl)-3a-methyl-3a,4,9,10-tetrahydro-2,9,10a-triaza-cyclopenta[b]fluorene-1,3-dione]	≤ 39.8 nM
CN1CCN(CCN2C(=O)N3[C@H](c4cccc(O)c4)c4[nH]c5ccc(OC(F)F)cc5c4C[C@@]3(C)C2=O)CC1 (racemic) [Example 294, (3aSR,10RS)-6-(1,1-Difluoro-methoxy)-10-(3-hydroxy-phenyl)-3a-methyl-2-[2-(4-methyl-piperazin-1-yl)-ethyl}-3a,4,9,10-tetrahydro-2,9,10a-triaza-cyclopenta[b]fluorene-1,3-dione]	39.8 to 251 nM
CC1CCN(CCN2C(=O)N3[C@H](c4cccc(O)c4)c4[nH]c5ccc(OC(F)F)cc5c4C[C@@]3(C)C2=O)CC1 (racemic) [Example 293, (3aSR,10RS)-6-(1,1-Difluoro-methoxy)-10-(3-hydroxy-phenyl)-3a-methyl-2-[2-(4-methyl-piperidin-1-yl)-ethyl]-3a,4,9,10-tetrahydro-2,9,10a-triaza-cyclopenta[b]fluorene-1,3-dione]	39.8 to 251 nM
C=CCNCCCN1C(=O)N2[C@H](c3cccc(O)c3)c3[nH]c4ccc(OC(F)F)cc4c3C[C@@]2(C)C1=O (racemic) [Example 206, (3aSR,10RS)-2-(3-Allylamino-propyl)-6-(1,1-difluoro-methoxy)-10-(3-hydroxy-phenyl)-3a-methyl-3a,4,9,10-tetrahydro-2,9,10a-triaza-cyclopenta[b]fluorene-1,3-dione]	39.8 to 251 nM
COc1cc2c3c([nH]c2cc1F)[C@@H](c1cccc(O)c1)N1C(=O)N(CCN2CC=CCC2)C(=O)[C@]1(C)C3 (racemic) [Example 265, (3aSR,10RS)-2-[2-(3,6-Dihydro-2H-pyridin-1-yl)-ethyl]-7-fluoro-10-(3-hydroxy-phenyl)-6-methoxy-3a-methyl-3a,4,9,10-tetrahydro-2,9,10a-triaza-cyclopenta[b]fluorene-1,3-dione]	39.8 to 251 nM
CCN(CC)CCCN1C(=O)N2[C@H](c3cccc(O)c3)c3[nH]c4cc(F)c(Cl)cc4c3C[C@@]2(C)C1=O (racemic) [Example 469, (3aSR,10RS)-6-Chloro-2-(3-diethylamino-propyl)-7-fluoro-10-(3-hydroxy-phenyl)-3a-methyl-3a,4,9,10-tetrahydro-2,9,10a-triaza-cyclopenta[b]fluorene-1,3-dione]	≤ 39.8 nM
CCN(CCCN1C(=O)N2[C@H](c3cccc(O)c3)c3[nH]c4cc(F)c(OC)cc4c3C[C@@]2(C)C1=O)CCOC (racemic) [Example 316, (3aSR,10RS)-2-{3-[Ethyl-(2-methoxy-ethyl)-amino]-propyl}-7-fluoro-10-(3-hydroxy-phenyl)-6-methoxy-3a-methyl-3a,4,9,10-tetrahydro-2,9,10a-triaza-cyclopenta[b]fluorene-1,3-dione]	39.8 to 251 nM
C[C@@]12Cc3c([nH]c4ccc(Br)cc34)[C@@H](c3cccc(O)c3)N1C(=O)N(CCCN1CCCCC1)C2=O (racemic) [Example 373, (3aSR,10RS)-6-Bromo-10-(3-hydroxy-phenyl)-3a-methyl-2-(3-piperidin-1-yl-propyl)-3a,4,9,10-tetrahydro-2,9,10a-triaza-cyclopenta[b]fluorene-1,3-dione]	≤ 39.8 nM
CCOc1ccc2[nH]c3c(c2c1)C[C@@]1(C)C(=O)N(CCCN2CCC(C)CC2)C(=O)N1[C@@H]3c1cccc(O)c1 (racemic) [Example 224, (3aSR,10RS)-6-Ethoxy-10-(3-hydroxy-phenyl)-3a-methyl-2-[3-(4-methyl-piperidin-1-yl)-propyl]-3a,4,9,10-tetrahydro-2,9,10a-triaza-cyclopenta[b]fluorene-1,3-dione]	39.8 to 251 nM
CCN(CCCN1C(=O)N2[C@H](c3cccc(O)c3)c3[nH]c4ccc(Cl)cc4c3C[C@@]2(C)C1=O)CCOC (racemic) [Example 397, (3aSR,10RS)-6-Chloro-2-{3-[ethyl-(2-methoxy-ethyl)-amino]-propyl}-10-(3-hydroxy-phenyl)-3a-methyl-3a,4,9,10-tetrahydro-2,9,10a-triaza-cyclopenta[b]fluorene-1,3-dione]	≤ 39.8 nM
CCOc1ccc2[nH]c3c(c2c1)C[C@@]1(C)C(=O)N(CCN(CC)CCO)C(=O)N1[C@@H]3c1cccc(O)c1 (racemic) [Example 298, (3aSR,10RS)-6-Ethoxy-2-{2-[ethyl-(2-hydroxy-ethyl)-amino]-ethyl}-10-(3-hydroxy-phenyl)-3a-methyl-3a,4,9,10-tetrahydro-2,9,10a-triaza-cyclopenta[b]fluorene-1,3-dione]	39.8 to 251 nM
COc1cc2c3c([nH]c2cc1F)[C@@H](c1cccc(O)c1)N1C(=O)N(CCCN2CC=CC2)C(=O)[C@]1(C)C3 (racemic) [Example 323, (3aSR,10RS)-2-[3-(2,5-Dihydro-pyrrol-1-yl)-propyl]-7-fluoro-10-(3-hydroxy-phenyl)-6-methoxy-3a-methyl-3a,4,9,10-tetrahydro-2,9,10a-triaza-cyclopenta[b]fluorene-1,3-dione]	39.8 to 251 nM
COc1ccc2[nH]c3c(c2c1F)C[C@@]1(C)C(=O)N(CCNC2CCC2)C(=O)N1[C@@H]3c1cccc(O)c1 (racemic) [Example 413, (3aSR,10RS)-2-(2-Cyclobutylamino-ethyl)-5-fluoro-10-(3-hydroxy-phenyl)-6-methoxy-3a-methyl-3a,4,9,10-tetrahydro-2,9,10a-triaza-cyclopenta[b]fluorene-1,3-dione]	39.8 to 251 nM
CNCCCN1C(=O)N2[C@H](c3cccc(O)c3)c3[nH]c4ccc(OC(F)F)cc4c3C[C@@]2(C)C1=O (racemic) [Example 203, (3aSR,10RS)-6-(1,1-Difluoro-methoxy)-10-(3-hydroxy-phenyl)-3a-methyl-2-(3-methylamino-propyl)-3a,4,9,10-tetrahydro-2,9,10a-triaza-cyclopenta[b]fluorene-1,3-dione]	39.8 to 251 nM
CCN(C)CCCN1C(=O)N2[C@H](c3cccc(O)c3)c3[nH]c4ccc(OC(F)F)cc4c3C[C@@]2(C)C1=O (racemic) [Example 247, (3aSR,10RS)-6-(1,1-Difluoro-methoxy)-2-[3-(ethyl-methyl-amino)-propyl]-10-(3-hydroxy-phenyl)-3a-methyl-3a,4,9,10-tetrahydro-2,9,10a-triaza-cyclopenta[b]fluorene-,3-dione]	≤ 39.8 nM
CN(CCO)CCCN1C(=O)N2[C@H](c3cccc(O)c3)c3[nH]c4cc(F)c(Cl)cc4c3C[C@@]2(C)C1=O (racemic) [Example 468, (3aSR,10RS)-6-Chloro-7-fluoro-2-{3-[(2-hydroxy-ethyl)-methyl-amino]-propyl}-10-(3-hydroxy-phenyl)-3a-methyl-3a,4,9,10-tetrahydro-2,9,10a-triaza-cyclopenta[b]fluorene-1,3-dione]	≤ 39.8 nM
